We go through three compounds from US20100286145A1, “ISOPHTHALAMIDE DERIVATIVES INHIBITING BETA-SECRETASE ACTIVITY” (CoMentis, Inc., priority 2007, published 2010).

Data set [1] in a line: Brain pharmacokinetic analysis / brain penetration in rats, i.v. bolus. Format: in vivo. An excerpt: (§1) Quantitative analysis was used to determine the concentration of a test inhibitor, N1-((2S,3R)-4-((5-(2-fluoropropan-2-yl)pyridin-3-yl)methylamino)-3-hydroxy-1-phenylbutan-2-yl)-N3-methyl-N3-((4-methylthiazol-2-yl)methyl)isophthalamide, in biological tissues. The test inhibitor was extracted from a variety of biological samples followed by its selective identification and quantification from a standard curve prepared in the same extracted biological matrix. Briefly, this extraction is accomplished through a simple protein precipitation technique performed on collected plasma. The resultant extractions are then quantified using the LC/MS protocol as detailed herein.
(§2) Quantitative analysis was performed through LC/MS analysis. The system was composed of an Eksigent Express LC 100 microflow HPLC system, coupled with an Eksigent CXP C-8AR 0.3*50 mm, or other suitable column, and a Thermo TSQuantum Classic triple quadrupole mass spectrometer running in positive ion, SRM mode. The HPLC buffers were 99.5% H2O, 0.5% formic acid (buffer A) and 99.5% acetonitrile, 0.5% formic acid (buffer B). Typically, a 10 μl aliquot was injected onto the column followed by a 1.5 minute chromatographic analysis. This analysis was conducted at a 20 μl/min flow rate, and composed of a gradient from 15% B to 90% B followed by a 98% B flush to facilitate compound separation and quantitation. Each sample was analyzed in duplicate, with QC, and system blank samples run after every sample set. The column effluent was analyzed in real time by MS/MS to allow the positive identification and quantification of the test inhibitor by compound fingerprint analysis. This was accomplished by allowing only species of 586.3 Da to pass through the first quadrupole, followed by collision induced decay in quadrupole two and scanning analysis of selected daughter ions specific to the test compound in quadrupole three. The collected data was analyzed using the LCQuan software package from Thermo Electron, to determine the levels of the test compound in the samples.
Male Sprague-Dawley Rats (200-400 g) were obtained from Taconic Farms (Hudson, N.Y.) with a pre-implanted jugular vein cannula (JVC) for blood sampling. A solution (5 mg/mL, free base equivalents) of the test inhibitor, N1-((2S,3R)-4-((5-(2-fluoropropan-2-yl)pyridin-3-yl)methylamino)-3-hydroxy-1-phenylbutan-2-yl)-N3-methyl-N3-((4-methylthiazol-2-yl)methyl)isophthalamide mono-citrate salt, was prepared freshly in 35% hydroxypropyl-β-cyclodextrin (HPBCD). Intravenous bolus injection was conducted using a 25 gauge needle via the tail vein. Animals were supplied with water and a commercial rodent diet ad libitum prior to and during the study.
Blood samples (˜100 μl at each time point) for plasma pharmacokinetic (PK) analysis were collected from the JVC cannula into lithium-heparin tubes at 2 min, 5 min, 15 min, 30 min, 45 min, 1 hr, 2 hr, 4 hr, 6 hr and 24 hr post-dose (Group A in Table 2). For compartmental PK analysis, blood and brain were collected from animals in Group B (Table 2) at 15 min, 1 hr, 2 hr, 4 hr, and 6 hr post-dose, with three rats assigned to each time point. Animals were deeply anesthetized with isoflurane and blood collected by cardiocentesis. Plasma separated by centrifugation at 6000 rpm×10 min. Brain hemispheres were subsequently harvested and snap frozen in liquid nitrogen. Plasma and brain samples were subsequently stored at −70° C.
Bioanalysis of the test inhibitor from plasma and brain extracts was performed according to standard procedures. Briefly, 20 μl of plasma was extracted with 100 μl of acetonitrile using a 96-well Solvinert filter plate (Millipore). Samples were subjected to LC/MS/MS analysis using an Eksigent Express LC 100 microflow HPLC system, coupled with an Eksigent CXP C-18AR 0.3*50 mm column, and a Thermo TSQuantum Classic triple quadrupole mass spectrometer running in positive ion, SRM mode. […]

Data set [2] in a line: Plasma pharmacokinetic analysis in rats, i.v. bolus. Format: in vivo. Particulars: male, Sprague-Dawley, rat.
From the text: as §1
Whole blood from animals dosed with the test inhibitor was collected in lithium heparin anti-coagulant tubes. These samples were centrifuged to allow the subsequent collection of plasma, with plasma aliquots immediately stored at −70° C. For quantitative analysis, the samples were then thawed on ice and a 20 μl aliquot was added to a well of a multi-screen Solvinert filter plate (Millipore). A five-fold volume of acetonitrile was added to each sample to facilitate protein precipitation, the samples were multiply aspirated or shaken to mix and then centrifuged at 4500 rpm for 15 minutes to filter the samples, with the supernatant being collected in an underlying 96 well receiving plate. The receptor plate was then dried via speed vacuum at 40° C. The sample was reconstituted by multiple aspirations with a reconstitution buffer composed of 10% acetonitrile, 10% DMSO, 80% H2O with an internal standard added at a concentration of 100 ng/ml. Standards of the test inhibitor were prepared in 100% DMSO for the generation of a standard curve for sample quantification. The samples range from 1 to 100000 ng/ml, as required for the analysis. A 1 μl aliquot of standard was added per 10 μl of blank plasma to construct a calibration curve, 0.1 ng/ml to 10000 ng/ml, prior to the protein precipitation step again as required for analysis. Quality control samples were prepared identically, from an alternate standard source and a single sample was prepared with an identical volume spike added post precipitation and collection to monitor the extraction efficiency. This method was applicable to plasma from all species currently being tested. Solvinert filter wells were pre-washed with 100 μl of 10% MeOH/90% ACN followed by centrifugation at 4500 RPM for 10 min prior to use.
as §2
Male Sprague-Dawley Rats (200-400 g) were obtained from Taconic Farms (Hudson, N.Y.) with a pre-implanted jugular vein cannula (JVC) for blood sampling. […]

The mark [3] stands for this setting: male, Sprague-Dawley, rat, in vivo, iv, 10 mg/kg.

The structures appear in SMILES notation.

For the compound `Cc1csc(CN(C)C(=O)c2cccc(C(=O)N[C@@H](Cc3ccccc3)[C@H](O)CNCc3cncc(C(C)(C)F)c3)c2)n1` [N1-((2S,3R)-4-((5-(2-fluoropropan-2-yl)pyridin-3-yl)methylam] [N1-((2S,3R)-4-((5-(2-fluoropropan-2-yl)pyridin-3-yl)methylamino)-3-hydroxy-1-phenylbutan-2-yl)-N3-methyl-N3-((4-methylthiazol-2-yl)methyl)isophthalamide], in data set [1] (setting [3]), the “Penetration (%), brain relative to plasma AUC24 hr” value is 47%.

Turning to `Cc1csc(CN(C)C(=O)c2cccc(C(=O)N[C@@H](Cc3ccccc3)[C@H](O)CNCc3cncc(C(C)(C)F)c3)c2)n1` [N1-((2S,3R)-4-((5-(2-fluoropropan-2-yl)pyridin-3-yl)methylamino)-3-hydroxy-1-phenylbutan-2-yl)-N3-methyl-N3-((4-methylthiazol-2-yl)methyl)isophthalamide], the exposure (AUC) in data set [2] (plasma, rats, single 10 mg/kg intravenous dose, read-out: 24 hr plasma AUC) came to 2580 ng·h/mL. In data set [1] (male, Sprague-Dawley, rat, in vivo, iv, 10 mg/kg, Penetration (%), brain relative to plasma AUC24 hr), this compound came in with a Kp of 0.468.

In data set [2] (in vivo, iv, 10 mg/kg), `Cc1csc(CN(C)C(=O)c2cccc(C(=O)N[C@@H](Cc3ccccc3)[C@H](O)CNCc3cncc(C(C)(C)F)c3)c2)n1` [test inhibitor, N1-((2S,3R)-4-((5-(2-fluoropropan-2-yl)pyridin-3-yl)methylamino)-3-hydroxy-1-phenylbutan-2-yl)-N3-methyl-N3-((4-methylthiazol-2-yl)methyl)isophthalamide] had a concentration at 0.25 h of 2500 ng/mL, a concentration at 1 h of 548 ng/mL, a concentration at 2 h of 130 ng/mL and a concentration at 4 h of 31.1 ng/mL. In data set [2] (in vivo, iv, 10 mg/kg), this compound registered a concentration at 6 h of 5.7 ng/mL and a concentration at 24 h of 2.2 ng/mL. The half-life in data set [2] (plasma, iv, 10 mg/kg, rats, i.v. bolus 10 mg/kg, read-out: Plasma Terminal phase t1/2 (converted)) was 13.1 h. Besides, in data set [2] (plasma, iv, 10 mg/kg, rats, single 10 mg/kg intravenous dose, read-out: half-life in plasma), the half-life was in the range of 6 to 13 h. Moreover, the AUC(0-t) in data set [2] (plasma, iv, rats, single dose i.v. 10 mg/kg, read-out: AUC24 hr, Plasma) was 2580 ng·h/mL. Further, in data set [1] (setting [3]), the “Brain Terminal phase t1/2” value was 34.3 h; the MRT last came to 12 h; the “Penetration (%), brain relative to plasma AUC24 hr” value turned out to be 46.8%; the concentration at 0.25 h amounted to 160 ng/mL. Moreover, in data set [1] (setting [3]), the concentration at 1 h was found to be 71.1 ng/mL, the concentration at 2 h worked out at 72.4 ng/mL, the concentration at 4 h was determined as 28 ng/mL and the concentration at 6 h stood at 42.7 ng/mL. Moreover, the concentration at 24 h in data set [1] (setting [3]) came to 52.5 ng/mL. The half-life in data set [1] (male, Sprague-Dawley, rat, in vivo, iv, 10 mg/kg, Brain Terminal phase t1/2) was 34 h. In data set [1] (male, Sprague-Dawley, rat, in vivo, iv, rats, single dose i.v. 10 mg/kg, read-out: AUC24 hr, Brain), the AUC(0-t) was 1210 ng·h/mL. In addition, the “Brain AUC24 hr” value in data set [1] (rats, i.v. bolus 10 mg/kg) was determined as 1206.2 ng·h/mL.

What is called AUC is the area under the concentration-time curve, a measure of exposure. A word on the Kp: it is the ratio of the level in a tissue or fluid to that in plasma or blood. As usually defined, the MRT last is the average time that molecules of a dose stay in the body.
